Results as given in patent publication US6696494B2, “α-hydroxyarylbutanamine inhibitors of aspartyl protease” (Enanta Pharmaceuticals, Inc., priority 2001, dated 2004).
pIC50: −log10 of the molar value.

Target: HIV-1 protease (Human immunodeficiency virus type 1 group M subtype B, UniProt P04585)
Assay: Inhibition of microbial expressed viral protease (HIV-1 protease), method of Toth and Marshall
Assay type: biochemical
Method: Biological Assay for Inhibition of Microbial Expressed Viral Protease
The inhibition constants against HIV-1 protease were measured using the method described by M. V. Toth and G. R. Marshall, Int. J. Peptide protein Res., 1990, 544. The method described M. W. Pennington et al., Peptides 1990, Gimet, E. and D. Andrew, Eds., Escom; Leiden, Netherlands (1990) may also be used. The potency is measured as IC50in μM. The person of skill would accept these tests as predictive of the compounds' utility in vivo to treat HIV infected patients.

Question: `CC(C)(C)NC(=O)c1ccccc1CC[C@@H](O)[C@H](Cc1ccccc1)NC(=O)CNc1ccccc1` [Example 001192] was tested. Which pIC50 did it give?
Answer: 5.00 to 7.00

Question: How did the pIC50 turn out when `CC(C)(C)NC(=O)c1ccccc1CC[C@@H](O)[C@H](Cc1ccccc1)NC(=O)c1ccc(F)cc1F` [Example 000901] was run?
Answer: 5.00 to 7.00

Question: With `Cc1cccc(C)c1C(=O)N[C@@H](Cc1ccccc1)[C@H](O)CCc1ccccc1C(=O)NC(C)(C)C` [Example 000951] as the compound, how does the pIC50 read?
Answer: > 7.00

Question: How did the pIC50 turn out when `Cc1c(N)cccc1C(=O)N[C@@H](Cc1ccccc1)[C@H](O)CCc1ccccc1C(=O)NC(C)(C)C` [Example 000945] was run?
Answer: < 5.00

Question: `CN(C)c1ccc(C(=O)N[C@@H](Cc2ccccc2)[C@H](O)CCc2ccccc2C(=O)NC(C)(C)C)cc1` [Example 000954] was tested. Which pIC50 did it give?
Answer: < 5.00

Question: `CCCCNC(=O)c1ccccc1CC[C@@H](O)[C@H](Cc1ccccc1)NC(=O)OC(C)(C)C` [Example 000344] was tested. Which pIC50 did it give?
Answer: 5.00 to 7.00

Question: `Cc1cc([N+](=O)[O-])cc(C)c1OCC(=O)N[C@@H](Cc1ccccc1)[C@H](O)CCc1ccccc1C(=O)NC(C)(C)C` [Example 001211] was tested. Which pIC50 did it give?
Answer: 5.00 to 7.00

Question: How did the pIC50 turn out when `CC(C)(C)NC(=O)c1ccccc1CC[C@@H](O)[C@H](Cc1ccccc1)NS(=O)(=O)c1cccc2cccnc12` [Example 00878] was run?
Answer: 5.00 to 7.00

Question: `CC(C)(C)NC(=O)c1ccccc1CC[C@@H](O)[C@H](Cc1ccccc1)NS(=O)(=O)c1ccc(C(F)(F)F)cc1` [Example 000877] was tested. Which pIC50 did it give?
Answer: 5.00 to 7.00

Question: `Cc1c(O)cccc1OCC(=O)N[C@@H](Cc1ccccc1)[C@H](O)CCc1ccccc1C(=O)NC(C)(C)C` [Example 001246] was tested. Which pIC50 did it give?
Answer: > 7.00

Question: `CC(C)(C)NC(=O)c1ccccc1CC[C@@H](O)[C@H](Cc1ccccc1)NC(=O)COc1c(F)cccc1F` [Example 001214] was tested. Which pIC50 did it give?
Answer: > 7.00

Question: How did the pIC50 turn out when `C[C@H](O)C(=O)N[C@@H](Cc1ccccc1)[C@H](O)CCc1ccccc1C(=O)NC(C)(C)C` [Example 000242] was run?
Answer: 5.00 to 7.00

Question: `CC(C)(C)NC(=O)c1ccccc1CC[C@@H](O)[C@H](Cc1ccccc1)NC(=O)COC1CCCCC1` [Example 001228] was tested. Which pIC50 did it give?
Answer: 5.00 to 7.00

Question: How did the pIC50 turn out when `Cc1cccc(C)c1OCC(=O)N[C@@H](Cc1ccccc1)[C@H](O)CCc1ccccc1C(=O)NC(C)(C)C` [Example 000987] was run?
Answer: > 7.00

Question: With `CC(C)(C)NC(=O)c1ccccc1CC[C@@H](O)[C@H](Cc1ccccc1)NC(=O)c1ccc(Br)c(C(=O)O)c1` [Example 001035] as the compound, how does the pIC50 read?
Answer: 5.00 to 7.00

Question: With `CCc1ccc(NC(=O)N[C@@H](Cc2ccccc2)[C@H](O)CCc2ccccc2C(=O)NC(C)(C)C)cc1` [Example 000893] as the compound, how does the pIC50 read?
Answer: 5.00 to 7.00

Question: How did the pIC50 turn out when `Cc1ccc(OCC(=O)N[C@@H](Cc2ccccc2)[C@H](O)CCc2ccccc2C(=O)NC(C)(C)C)cc1` [Example 001186] was run?
Answer: 5.00 to 7.00

Question: `CC(C)(C)NC(=O)c1ccccc1CC[C@@H](O)[C@H](Cc1ccccc1)NC(=O)c1ccccc1C(=O)c1ccccc1N` [Example 001040] was tested. Which pIC50 did it give?
Answer: 5.00 to 7.00

Question: How did the pIC50 turn out when `CC(C)(C)NC(=O)c1ccccc1CC[C@@H](O)[C@H](Cc1ccccc1)NC(=O)COc1ccc2ccccc2c1` [Example 000760] was run?
Answer: 5.00 to 7.00

Question: How did the pIC50 turn out when `Cc1cccc(C)c1OCC(=O)N[C@@H](Cc1ccccc1)[C@H](O)CCc1cccc(F)c1C(=O)NC(C)(C)C` [Example 001239] was run?
Answer: > 7.00

Question: With `CC(C)(C)NC(=O)c1ccccc1CC[C@@H](O)[C@H](Cc1ccccc1)NS(=O)(=O)c1cccs1` [Example 000880] as the compound, how does the pIC50 read?
Answer: 5.00 to 7.00

Question: With `CC(C)S(=O)(=O)N[C@@H](Cc1ccccc1)[C@H](O)CCc1ccccc1C(=O)NC(C)(C)C` [Example 000881] as the compound, how does the pIC50 read?
Answer: 5.00 to 7.00

Question: How did the pIC50 turn out when `CC(C)(C)NC(=O)c1ccccc1CC[C@@H](O)[C@H](Cc1ccccc1)NC(=O)NC1CCCCC1` [Example 000882] was run?
Answer: < 5.00

Question: With `Cc1cccc(Cl)c1OCC(=O)N[C@@H](Cc1ccccc1)[C@H](O)CCc1ccccc1C(=O)NC(C)(C)C` [Example 001215] as the compound, how does the pIC50 read?
Answer: > 7.00

Question: `CC(C)(C)NC(=O)c1ccccc1CC[C@@H](O)[C@H](Cc1ccccc1)NS(=O)(=O)c1ccc(Br)c(Cl)n1` [Example 000879] was tested. Which pIC50 did it give?
Answer: 5.00 to 7.00

Question: `CC(C)(C)NC(=O)c1ccccc1CC[C@@H](O)[C@H](Cc1ccccc1)NC(=O)COc1cc(F)cc(F)c1` [Example 001182] was tested. Which pIC50 did it give?
Answer: < 5.00

Question: How did the pIC50 turn out when `Cc1cc(CO)cc(C)c1OCC(=O)N[C@@H](Cc1ccccc1)[C@H](O)CCc1ccccc1C(=O)NC(C)(C)C` [Example 001267] was run?
Answer: > 7.00

Question: With `CC(C)CC(O)C(=O)NC(Cc1ccccc1)C(O)CCc1ccccc1C(=O)NC(C)(C)C` (stereo not drawn) [Example 001219] as the compound, how does the pIC50 read?
Answer: 5.00 to 7.00

Question: How did the pIC50 turn out when `CC(C)(C)NC(=O)c1ccccc1CC[C@@H](O)[C@H](Cc1ccccc1)NC(=O)N(c1ccccc1)c1ccccc1` [Example 001006] was run?
Answer: 5.00 to 7.00

Question: How did the pIC50 turn out when `CC(C)(C)NC(=O)c1ccccc1CCC(O)C(Cc1ccccc1)NC(=O)C(F)=Cc1ccccc1` (stereo not drawn) [Example 000947] was run?
Answer: < 5.00

Question: With `CCC(C)(C)c1ccc(S(=O)(=O)N[C@@H](Cc2ccccc2)[C@H](O)CCc2ccccc2C(=O)NC(C)(C)C)cc1` [Example 000875] as the compound, how does the pIC50 read?
Answer: 5.00 to 7.00

Question: With `Cc1cc(C(=O)N[C@@H](Cc2ccccc2)[C@H](O)CCc2ccccc2C(=O)NC(C)(C)C)cc(C)c1OCC(=O)O` [Example 001278] as the compound, how does the pIC50 read?
Answer: 5.00 to 7.00

Question: How did the pIC50 turn out when `CC1CCCC(C)C1OCC(=O)NC(Cc1ccccc1)C(O)CCc1ccccc1C(=O)NC(C)(C)C` (stereo not drawn) [Example 001230] was run?
Answer: 5.00 to 7.00

Question: `CC(C)(C)NC(=O)c1ccccc1CC[C@@H](O)[C@H](Cc1ccccc1)NC(=O)Cc1ccccc1` [Example 00762] was tested. Which pIC50 did it give?
Answer: 5.00 to 7.00

Question: `CC(C)(C)NC(=O)c1ccccc1CC[C@@H](O)[C@H](Cc1ccccc1)NC(=O)COc1ccc(F)c(F)c1F` [Example 001227] was tested. Which pIC50 did it give?
Answer: 5.00 to 7.00

Question: How did the pIC50 turn out when `Cc1cccc(OCC(=O)N[C@@H](Cc2ccccc2)[C@H](O)CCc2ccccc2C(=O)NC(C)(C)C)c1` [Example 001185] was run?
Answer: 5.00 to 7.00
